In patent publication US6573300B2, “Hydroxyurea treatment for spinal muscular atrophy” (China Medical College Hospital, priority 2001, dated 2003):

Key:
[1] = tested on: SMA-like mice; experiment: Treatment of types 2 and 3 SMA-like mice (hSMN2 Smn-/-) via drinking water; assay type: in vivo, mouse
Method: To generate hSMN2 Smn^−/− mice, hSMN2 Smn^+/− mice were crossed to Smn^+/− mice. Progeny lacking the murine SMN locus were identified by genotyping. The presence of the hSMN2 transgene was also confirmed.
The effect of hydroxyurea on the symptoms of SMA-like mice were investigated. Hydroxyurea was administered to ten SMA-like mice with type 2 symptoms and ten SMA-like mice with type 3 symptoms. These mice were identified at birth by genotype and phenotype. Hydroxyurea was administered to the SMA-like mice as 1 mg/ml to 2 mg/ml solution available ad libitum in their drinking water. The amount of hydroxyurea taken by SMA-like mice was estimated to be approximate 5-10 mg/day. The survival time of hydroxyurea-treated type 2 SMA-like mice was longer, about 4 to 5 days longer on average, than untreated mice.
The effect of hydroxyurea administration on the tail phenotype of SMA-like mice was also monitored. The tails of untreated types 2 and 3 SMA-like mice have decreased diameter of muscle fibers, atrophy of muscle bundles, group atrophy and subcutaneous edema (Hsieh-Li et al. (2000) supra).

[2] = tested on: exon 7-containing SMN protein; experiment: Western-blot analysis (H2 and H7 antibodies) of SMN protein in SMA lymphoid cell lines; assay type: cell-based, human
Text: Western-blot analysis. Rabbits were immunized with synthetic peptides containing either human SMN amino acids 279-288 from exon 7 or amino acids 72-84 from exon 2. Specific antibodies (H7 and H2 respectively) were purified from rabbit crude sera with an EAH-sepharose 4B column (Pharmacia) according to the manufacturer's instructions.
Protein samples, prepared from treated and untreated SMA lymphoid cells, were loaded on a 5% polyacrylamide stacking gel above a 12% separating gel, and the gel was run with a discontinuous buffer using Laemmli's method. After electrophoresis, proteins were transferred electrophoretically to polyvinyl difluoride membranes (Millipore Corp., Marlborough, Mass., USA). After the transfer, the membranes were blocked in TBST (50 mM Tris.HCl, pH 7.5, 150 mM NaCl, 0.05% Tween 20) containing 4% BSA (bovine serum albumin) for 2 hours at room temperature. Blots were incubated with a 1:800 dilution of anti-SMN exon 2 (H2) or anti-SMN exon 7 (H7) antibody in TBST for 2 hours at room temperature. […] The secondary antibody was detected with a 1.5% solution of 5-bromo-4-chloro-3-indoyl phosphate and 3% nitro blue tetrazolium in a developing buffer (100 mM NaCl, 5 mM MgCl2, 100 mM Tris.HCl, pH 9.5).

[3] = absorbed from the gastrointestinal tract; cited from earlier work
[4] = tested on: human SMA patients; experiment: Treatment of human SMA patients, oral; assay type: in vivo

SMILES: NC(=O)NO [hydroxyurea]
- tail phenotype ([1]; most of types 2 and 3 SMA-like mice, after treatment): nearly normal phenotype
- frequency of chronic necrosis originating at the tip of the tail ([1]; treated SMA-like mice, 50% for untreated): 2%
- exon 7-containing SMN protein levels in multiple tissues, including spinal cord motor neurons ([1]; western blot and immunohistochemical studies, treated SMA-like mice): elevated
- intact SMN protein in cytosolic and nuclear fractions ([2]; after 3 hours stimulation with 5 ng/ml to 500 μg/ml): increase
- levels of exon 7-containing SMN protein ([2]; lymphoid cell lines from different types of SMA patients, varying amounts, vs untreated controls): increase
- time to enter the serum after ingestion [3]: ≤ 2 h
- full-length SMN mRNA transcript in peripheral mononuclear cells ([4]; SMA patients with SMN1 deletion, oral 15 to 25 mg/kg/day): elevated
- walking gait ([4]; one type II patient, improved to a type III phenotype): improved
- clinical symptoms of all three patients ([4]; oral 15 to 25 mg/kg/day): improved
- muscle strength ([4]; other type II patient): improved muscle strength
- respirator dependence ([4]; type I patient, on respirator before treatment): respirator free
